Structures can show the parent of a compound that is named as a salt.
The molecules below were run against T1, Nicotinic acetylcholine receptor (Rattus norvegicus, UniProt P09483+P12390). Conditions: 10 nM of the test drug; 1 nM of ^3H-cytidine; rat whole brain membrane fraction; 4°C for 75 min; nonspecific binding with 10 µM (-)nicotine.
T1 construct: the rat was decapitated, and the whole brain was removed and homogenized; from tissue; host or cells: rat whole brain membrane fraction
Protocol: Nicotinic acetylcholine receptor binding assay
The membrane fraction was prepared in accordance with the protocol described in Brain Res., 100, 81-87 (1977). Thus, the rat was decapitated, and the whole brain was removed and homogenized with 15 volumes of cold 0.32 M aqueous sucrose solution using a Teflon homogenizer. The homogenate was centrifuged at 4°C and 1,000 x g for 10 mm. and the supernatant obtained was centrifuged at 4°C and 20,000 x g for 20 min. Then, ice-cold distilled water was added to the pellet, and the pellet was suspended using Hiscotron®. The suspension was centrifuged at 4°C and 8,000 x g for 20 min. and the supernatant and the buffy coat layer were recovered and centrifuged again at 4°C and 40,000 x g for 20 min. The pellet obtained was suspended in cold distilled water and stored at -80°C until used.
The receptor binding experiment was performed in accordance with the protocol described in J. Pharamcol. Exp. Ther., 270, 310-318 (1994). Thus, the rat whole brain membrane fraction (ca 200 µg) was incubated in BSS-Tris buffer [composition mM: NaCl 120, KCl 5, CaCl22, MgCl22, Tris-HCl 50 (pH=7.4, at 4°C)] containing 1 nM of ^3H-cytidine and 10 nM of the test drug at 4°C for 75 min. To stop the reaction, 4 ml of cold BSS-Tris buffer was added and the reaction mixture was immediately suction-filtered on GF/B glass fiber filter paper which had been pre-soaked in 0.5% polyethyleneimine. The filter paper was recovered, 4 ml of ACS-II (Amersham, TM) was added, and the ^3H radioactivity was determined with a scintillation counter. Based on the value (specific binding) obtained after subtraction of the ^3H-binding (nonspecific binding) amount in the presence of 10 µM (-)nicotine, the inhibition rate of ^3H-cytidine binding at the 10 nM concentration of each drug was calculated.

T1 sequence (P09483 31-630): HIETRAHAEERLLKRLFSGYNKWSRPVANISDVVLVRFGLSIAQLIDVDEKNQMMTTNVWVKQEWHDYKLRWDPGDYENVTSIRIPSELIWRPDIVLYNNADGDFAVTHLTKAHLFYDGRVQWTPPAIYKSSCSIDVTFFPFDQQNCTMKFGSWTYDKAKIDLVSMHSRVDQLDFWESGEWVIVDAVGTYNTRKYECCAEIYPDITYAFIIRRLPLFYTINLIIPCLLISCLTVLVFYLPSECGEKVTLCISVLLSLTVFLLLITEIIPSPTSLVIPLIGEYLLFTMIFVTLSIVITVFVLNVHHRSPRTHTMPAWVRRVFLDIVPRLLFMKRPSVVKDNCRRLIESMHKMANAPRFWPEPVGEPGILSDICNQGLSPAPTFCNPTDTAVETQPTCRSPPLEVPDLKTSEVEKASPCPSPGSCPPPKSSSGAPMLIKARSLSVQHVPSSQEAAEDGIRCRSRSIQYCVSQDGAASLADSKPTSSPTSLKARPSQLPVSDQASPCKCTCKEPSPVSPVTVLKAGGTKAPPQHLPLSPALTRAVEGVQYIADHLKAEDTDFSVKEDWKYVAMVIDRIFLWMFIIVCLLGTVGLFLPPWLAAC
T1 sequence (P12390 25-500): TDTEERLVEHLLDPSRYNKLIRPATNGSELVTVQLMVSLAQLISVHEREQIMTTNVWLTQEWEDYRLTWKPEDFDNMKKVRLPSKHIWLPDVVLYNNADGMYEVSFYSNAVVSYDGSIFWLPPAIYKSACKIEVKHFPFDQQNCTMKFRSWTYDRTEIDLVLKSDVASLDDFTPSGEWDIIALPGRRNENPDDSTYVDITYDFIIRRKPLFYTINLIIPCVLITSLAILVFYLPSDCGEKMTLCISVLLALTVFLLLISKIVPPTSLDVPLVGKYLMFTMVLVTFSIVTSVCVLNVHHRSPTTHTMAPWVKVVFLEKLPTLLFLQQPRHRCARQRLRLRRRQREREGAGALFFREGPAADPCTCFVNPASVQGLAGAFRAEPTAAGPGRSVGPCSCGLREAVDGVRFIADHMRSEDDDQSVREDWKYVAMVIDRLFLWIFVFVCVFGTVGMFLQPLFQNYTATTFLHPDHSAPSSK

Structure (SMILES) | Inhibition of ^3H-Cytidine binding
c1cncc(C2CC3CCC2NC3)c1 (stereo not drawn) [Example 1, Syn-6-(3-pyridyl)-2-azabicyclo[2. 2. 2]octane oxalate] | 94%
c1ncc(C2CC3CCC2NC3)cn1 (stereo not drawn) [Example 16, Syn-6-(5-pyrimidinyl)-2-azabicyclo[2. 2. 2]octane] | 93%
Cc1cc(C2CC3CCC2NC3)on1 (stereo not drawn) [Example 18, Syn-6-(3-methyl-5-isoxazolyl)-2-azabicyclo[2. 2. 2]octane] | 84%
C1=C(c2cnccn2)C2CCC1CN2 (stereo not drawn) [Example 23, 6-(2-Pyrazinyl)-2-azabicyclo[2. 2. 2]oct-5-ene] | 39%
Brc1cncc(C2=CC3CCC2CN3)c1 (stereo not drawn) [Example 24, 5-(5-Bromo-3-pyridyl)-2-azabicyclo[2. 2. 2]oct-5-ene] | 92%
C#Cc1cncc(C2CC3CCC2NC3)c1 (stereo not drawn) [Example 28, Syn-6-(5-ethynyl-3-pyridyl)-2-azabicyclo[2. 2. 2]octane] | 91%
c1ccc(-c2cncc(C3CC4CCC3NC4)c2)cc1 (stereo not drawn) [Example 29, Syn-6-(5-phenyl-3-pyridyl)-2-azabicyclo[2. 2. 2]octane] | 86%
c1cncc(C2CC3CC2CN3)c1 (stereo not drawn) [Example 30, Syn-5-(3-pyridyl)-2-azabicyclo[2. 2. 1]heptane] | 87%
c1cncc(C2CC3CCCC2NC3)c1 (stereo not drawn) [Example 31, Syn-8-(3-pyridyl)-7-azabicyclo[3. 2. 2.]nonane] | 84%
